{"source": "the NIST ThermoML archive (doi:10.1021/je0497294)", "key": {"[1]": {"details": "298.15 K; for surface tension liquid-gas: Pendant drop shape; for mass density: 101.33 kPa, Liquid"}, "[2]": {"assay": "xn = mol fraction of the nth substance listed", "details": "298.15 K, Pendant drop shape"}}, "note": "Values joined by “and” are separate entries in the source; they are usually repeats but may differ in a detail not shown here. Identical values can stand only once. ± gives the expanded uncertainty stated by the source."}
{"molecule": "Cc1ccc(C)c(C)c1", "note": "[1,2,4-trimethylbenzene]", "values": [{"measurement": "surface tension liquid-gas", "setting": "[1]", "result": "29.25 ± 0.33", "unit": "mN/m"}, {"measurement": "mass density", "setting": "[1]", "result": "871.64 ± 0.41", "unit": "kg/m3"}]}
{"molecule": "Cc1ccc(C)c(C)c1", "note": "[1,2,4-trimethylbenzene] + C1CCOC1", "values": [{"measurement": "surface tension liquid-gas", "setting": "[2]; x2 = 0", "result": "29.25 ± 0.33", "unit": "mN/m"}, {"measurement": "surface tension liquid-gas", "setting": "[2]; x2 = 0.0988", "result": "29.11 ± 0.32", "unit": "mN/m"}, {"measurement": "surface tension liquid-gas", "setting": "[2]; x2 = 0.2018", "result": "29 ± 0.32", "unit": "mN/m"}, {"measurement": "surface tension liquid-gas", "setting": "[2]; x2 = 0.3003", "result": "28.88 ± 0.31", "unit": "mN/m"}, {"measurement": "surface tension liquid-gas", "setting": "[2]; x2 = 0.3995", "result": "28.73 ± 0.31", "unit": "mN/m"}, {"measurement": "surface tension liquid-gas", "setting": "[2]; x2 = 0.5002", "result": "28.53 ± 0.3", "unit": "mN/m"}, {"measurement": "surface tension liquid-gas", "setting": "[2]; x2 = 0.6005", "result": "28.29 ± 0.3", "unit": "mN/m"}, {"measurement": "surface tension liquid-gas", "setting": "[2]; x2 = 0.6986", "result": "28.01 ± 0.3", "unit": "mN/m"}, {"measurement": "surface tension liquid-gas", "setting": "[2]; x2 = 0.7996", "result": "27.68 ± 0.29", "unit": "mN/m"}, {"measurement": "surface tension liquid-gas", "setting": "[2]; x2 = 0.9006", "result": "27.34 ± 0.29", "unit": "mN/m"}]}
{"molecule": "Cc1ccc(C)c(C)c1", "note": "[1,2,4-trimethylbenzene] + C[S+](C)[O-]", "values": [{"measurement": "surface tension liquid-gas", "setting": "[2]; x2 = 0", "result": "29.25 ± 0.33", "unit": "mN/m"}, {"measurement": "surface tension liquid-gas", "setting": "[2]; x2 = 0.1007", "result": "28.48 ± 0.32", "unit": "mN/m"}, {"measurement": "surface tension liquid-gas", "setting": "[2]; x2 = 0.2007", "result": "28.77 ± 0.32", "unit": "mN/m"}, {"measurement": "surface tension liquid-gas", "setting": "[2]; x2 = 0.3007", "result": "28.81 ± 0.32", "unit": "mN/m"}, {"measurement": "surface tension liquid-gas", "setting": "[2]; x2 = 0.3995", "result": "29.1 ± 0.32", "unit": "mN/m"}, {"measurement": "surface tension liquid-gas", "setting": "[2]; x2 = 0.501", "result": "29.46 ± 0.32", "unit": "mN/m"}, {"measurement": "surface tension liquid-gas", "setting": "[2]; x2 = 0.6012", "result": "29.34 ± 0.32", "unit": "mN/m"}, {"measurement": "surface tension liquid-gas", "setting": "[2]; x2 = 0.6992", "result": "29.35 ± 0.32", "unit": "mN/m"}, {"measurement": "surface tension liquid-gas", "setting": "[2]; x2 = 0.7992", "result": "30.04 ± 0.33", "unit": "mN/m"}, {"measurement": "surface tension liquid-gas", "setting": "[2]; x2 = 0.9013", "result": "35.71 ± 0.38", "unit": "mN/m"}]}
{"molecule": "Cc1ccc(C)c(C)c1", "note": "[1,2,4-trimethylbenzene] + ClC(Cl)(Cl)Cl", "values": [{"measurement": "surface tension liquid-gas", "setting": "[2]; x2 = 0", "result": "29.25 ± 0.33", "unit": "mN/m"}, {"measurement": "surface tension liquid-gas", "setting": "[2]; x2 = 0.0496", "result": "29.13 ± 0.32", "unit": "mN/m"}, {"measurement": "surface tension liquid-gas", "setting": "[2]; x2 = 0.0996", "result": "29.04 ± 0.32", "unit": "mN/m"}, {"measurement": "surface tension liquid-gas", "setting": "[2]; x2 = 0.1986", "result": "28.89 ± 0.32", "unit": "mN/m"}, {"measurement": "surface tension liquid-gas", "setting": "[2]; x2 = 0.3001", "result": "28.72 ± 0.32", "unit": "mN/m"}, {"measurement": "surface tension liquid-gas", "setting": "[2]; x2 = 0.4006", "result": "28.5 ± 0.31", "unit": "mN/m"}, {"measurement": "surface tension liquid-gas", "setting": "[2]; x2 = 0.5987", "result": "28.24 ± 0.31", "unit": "mN/m"}, {"measurement": "surface tension liquid-gas", "setting": "[2]; x2 = 0.6986", "result": "27.89 ± 0.3", "unit": "mN/m"}, {"measurement": "surface tension liquid-gas", "setting": "[2]; x2 = 0.7985", "result": "27.54 ± 0.3", "unit": "mN/m"}, {"measurement": "surface tension liquid-gas", "setting": "[2]; x2 = 0.9011", "result": "27.13 ± 0.29", "unit": "mN/m"}]}
{"molecule": "Cc1cc(C)cc(C)c1", "note": "[1,3,5-trimethylbenzene]", "values": [{"measurement": "surface tension liquid-gas", "setting": "[1]", "result": "28.09 ± 0.31 mN/m and 26.76 ± 0.3 mN/m"}, {"measurement": "mass density", "setting": "[1]", "result": "861.03 ± 0.38", "unit": "kg/m3"}]}
{"molecule": "Cc1cc(C)cc(C)c1", "note": "[1,3,5-trimethylbenzene] + C1CCOC1", "values": [{"measurement": "surface tension liquid-gas", "setting": "[2]; x2 = 0", "result": "28.09 ± 0.31", "unit": "mN/m"}, {"measurement": "surface tension liquid-gas", "setting": "[2]; x2 = 0.0481", "result": "27.88 ± 0.31", "unit": "mN/m"}, {"measurement": "surface tension liquid-gas", "setting": "[2]; x2 = 0.2021", "result": "27.72 ± 0.3", "unit": "mN/m"}, {"measurement": "surface tension liquid-gas", "setting": "[2]; x2 = 0.3002", "result": "27.57 ± 0.3", "unit": "mN/m"}, {"measurement": "surface tension liquid-gas", "setting": "[2]; x2 = 0.4", "result": "27.44 ± 0.3", "unit": "mN/m"}, {"measurement": "surface tension liquid-gas", "setting": "[2]; x2 = 0.5004", "result": "27.32 ± 0.29", "unit": "mN/m"}, {"measurement": "surface tension liquid-gas", "setting": "[2]; x2 = 0.601", "result": "27.23 ± 0.29", "unit": "mN/m"}, {"measurement": "surface tension liquid-gas", "setting": "[2]; x2 = 0.7003", "result": "27.15 ± 0.29", "unit": "mN/m"}, {"measurement": "surface tension liquid-gas", "setting": "[2]; x2 = 0.7989", "result": "27.09 ± 0.29", "unit": "mN/m"}, {"measurement": "surface tension liquid-gas", "setting": "[2]; x2 = 0.9", "result": "27.06 ± 0.29", "unit": "mN/m"}]}
{"molecule": "Cc1cc(C)cc(C)c1", "note": "[1,3,5-trimethylbenzene] + C[S+](C)[O-]", "values": [{"measurement": "surface tension liquid-gas", "setting": "[2]; x2 = 0", "result": "28.09 ± 0.31", "unit": "mN/m"}, {"measurement": "surface tension liquid-gas", "setting": "[2]; x2 = 0.1023", "result": "27.3 ± 0.3", "unit": "mN/m"}, {"measurement": "surface tension liquid-gas", "setting": "[2]; x2 = 0.1987", "result": "26.92 ± 0.3", "unit": "mN/m"}, {"measurement": "surface tension liquid-gas", "setting": "[2]; x2 = 0.3027", "result": "26.7 ± 0.3", "unit": "mN/m"}, {"measurement": "surface tension liquid-gas", "setting": "[2]; x2 = 0.401", "result": "27.41 ± 0.3", "unit": "mN/m"}, {"measurement": "surface tension liquid-gas", "setting": "[2]; x2 = 0.4999", "result": "28.4 ± 0.31", "unit": "mN/m"}, {"measurement": "surface tension liquid-gas", "setting": "[2]; x2 = 0.6003", "result": "30.09 ± 0.33", "unit": "mN/m"}, {"measurement": "surface tension liquid-gas", "setting": "[2]; x2 = 0.699", "result": "32.05 ± 0.34", "unit": "mN/m"}, {"measurement": "surface tension liquid-gas", "setting": "[2]; x2 = 0.8003", "result": "34.77 ± 0.37", "unit": "mN/m"}, {"measurement": "surface tension liquid-gas", "setting": "[2]; x2 = 0.8998", "result": "37.92 ± 0.39", "unit": "mN/m"}]}
{"molecule": "Cc1cc(C)cc(C)c1", "note": "[1,3,5-trimethylbenzene] + ClC(Cl)(Cl)Cl", "values": [{"measurement": "surface tension liquid-gas", "setting": "[2]; x1 = 1", "result": "26.76 ± 0.3", "unit": "mN/m"}]}
{"molecule": "C[S+](C)[O-]", "note": "[dimethyl sulfoxide]", "values": [{"measurement": "surface tension liquid-gas", "setting": "[1]", "result": "42.09 ± 0.43", "unit": "mN/m"}, {"measurement": "mass density", "setting": "[1]", "result": "1095.54 ± 0.42", "unit": "kg/m3"}]}
{"molecule": "C[S+](C)[O-]", "note": "[dimethyl sulfoxide] + Cc1cc(C)cc(C)c1", "values": [{"measurement": "surface tension liquid-gas", "setting": "[2]; x1 = 1", "result": "42.09 ± 0.43", "unit": "mN/m"}]}
{"molecule": "C[S+](C)[O-]", "note": "[dimethyl sulfoxide] + Cc1ccc(C)c(C)c1", "values": [{"measurement": "surface tension liquid-gas", "setting": "[2]; x1 = 1", "result": "42.09 ± 0.43", "unit": "mN/m"}]}
{"molecule": "ClC(Cl)(Cl)Cl", "note": "[tetrachloromethane]", "values": [{"measurement": "surface tension liquid-gas", "setting": "[1]", "result": "27.76 ± 0.3 mN/m and 26.76 ± 0.29 mN/m and 28.09 ± 0.3 mN/m"}, {"measurement": "mass density", "setting": "[1]", "result": "1583.8 ± 0.76", "unit": "kg/m3"}]}
{"molecule": "ClC(Cl)(Cl)Cl", "note": "[tetrachloromethane] + Cc1cc(C)cc(C)c1", "values": [{"measurement": "surface tension liquid-gas", "setting": "[2]; x2 = 0", "result": "28.09 ± 0.3", "unit": "mN/m"}, {"measurement": "surface tension liquid-gas", "setting": "[2]; x2 = 0.1009", "result": "27.77 ± 0.3", "unit": "mN/m"}, {"measurement": "surface tension liquid-gas", "setting": "[2]; x2 = 0.2014", "result": "27.53 ± 0.3", "unit": "mN/m"}, {"measurement": "surface tension liquid-gas", "setting": "[2]; x2 = 0.2994", "result": "27.29 ± 0.3", "unit": "mN/m"}, {"measurement": "surface tension liquid-gas", "setting": "[2]; x2 = 0.4007", "result": "27.1 ± 0.3", "unit": "mN/m"}, {"measurement": "surface tension liquid-gas", "setting": "[2]; x2 = 0.4998", "result": "26.99 ± 0.3", "unit": "mN/m"}, {"measurement": "surface tension liquid-gas", "setting": "[2]; x2 = 0.5995", "result": "26.91 ± 0.3", "unit": "mN/m"}, {"measurement": "surface tension liquid-gas", "setting": "[2]; x2 = 0.6988", "result": "26.86 ± 0.3", "unit": "mN/m"}, {"measurement": "surface tension liquid-gas", "setting": "[2]; x2 = 0.797", "result": "26.83 ± 0.3", "unit": "mN/m"}, {"measurement": "surface tension liquid-gas", "setting": "[2]; x2 = 0.9012", "result": "26.81 ± 0.3", "unit": "mN/m"}]}
{"molecule": "ClC(Cl)(Cl)Cl", "note": "[tetrachloromethane] + Cc1ccc(C)c(C)c1", "values": [{"measurement": "surface tension liquid-gas", "setting": "[2]; x1 = 1", "result": "26.76 ± 0.29", "unit": "mN/m"}]}
{"molecule": "C1CCOC1", "note": "[tetrahydrofuran]", "values": [{"measurement": "surface tension liquid-gas", "setting": "[1]", "result": "27.04 ± 0.29", "unit": "mN/m"}, {"measurement": "mass density", "setting": "[1]", "result": "882.06 ± 0.21", "unit": "kg/m3"}]}
{"molecule": "C1CCOC1", "note": "[tetrahydrofuran] + Cc1cc(C)cc(C)c1", "values": [{"measurement": "surface tension liquid-gas", "setting": "[2]; x1 = 1", "result": "27.04 ± 0.29", "unit": "mN/m"}]}
{"molecule": "C1CCOC1", "note": "[tetrahydrofuran] + Cc1ccc(C)c(C)c1", "values": [{"measurement": "surface tension liquid-gas", "setting": "[2]; x1 = 1", "result": "27.04 ± 0.29", "unit": "mN/m"}]}
